From patent US6740650B2, “Heterocyclic cytotoxic agents” (Rutgers, The State University of New Jersey, priority 2002, dated 2004)

Experiments:
human topoisomerase I = target: T1, human topoisomerase I (Homo sapiens, UniProt P11387); test: Test A. Topoisomerase I-mediated DNA cleavage assay; assay type: biochemical; conditions: concentration relative to 2,3-dimethoxy-8,9-methylenedioxybenzo[i]phenanthridine (=1.0) producing same cleavage (approx. 10% DNA fragmentation); 30 min, 37° C.
T1 construct: unnamed fusion partner (recombinant fusion protein, T7 expression system); made in house; host or cells: E. coli
T1 sequence (P11387 1-765): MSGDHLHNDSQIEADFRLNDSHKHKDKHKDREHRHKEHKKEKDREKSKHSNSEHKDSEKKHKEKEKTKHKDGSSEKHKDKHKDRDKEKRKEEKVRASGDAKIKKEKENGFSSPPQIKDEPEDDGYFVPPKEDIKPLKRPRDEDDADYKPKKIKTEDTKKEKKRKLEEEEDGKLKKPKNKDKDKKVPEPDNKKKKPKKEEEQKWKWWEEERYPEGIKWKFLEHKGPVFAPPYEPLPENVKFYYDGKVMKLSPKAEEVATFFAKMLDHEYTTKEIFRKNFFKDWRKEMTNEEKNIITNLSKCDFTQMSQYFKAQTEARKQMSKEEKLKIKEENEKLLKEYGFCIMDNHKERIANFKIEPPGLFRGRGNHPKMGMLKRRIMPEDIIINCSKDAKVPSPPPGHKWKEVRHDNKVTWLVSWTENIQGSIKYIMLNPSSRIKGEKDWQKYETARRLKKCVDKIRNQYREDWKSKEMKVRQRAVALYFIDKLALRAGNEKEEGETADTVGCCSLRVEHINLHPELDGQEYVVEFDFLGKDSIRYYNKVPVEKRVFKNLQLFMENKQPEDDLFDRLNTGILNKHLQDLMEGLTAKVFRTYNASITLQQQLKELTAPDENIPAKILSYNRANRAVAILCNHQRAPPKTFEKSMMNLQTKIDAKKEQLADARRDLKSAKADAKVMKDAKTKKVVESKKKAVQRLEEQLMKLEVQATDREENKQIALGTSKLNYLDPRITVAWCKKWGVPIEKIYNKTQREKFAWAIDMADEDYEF
Description: Test A. Topoisomerase I-mediated DNA Cleavage Assay
Human topoisomerase I was expressed in E. Coli and isolated as a recombinant fusion protein using a T7 expression system as described previously (Makhey, D. et al., Bioorg. Med. Chem., 2000, 8, 1-11). DNA topoisomerase I was purified from calf thymus gland as reported previously (Maniatis, T., et al., J. Molecular Cloning, a Laboratory Manual, Cold Spring Harbor Laboratory, Cold Spring Harbor, N.Y., 149-185). Plasmid YepG was also purified by the alkali lysis method followed by phenol deproteination and CsCl/ethidium isopycnic centrifugation method as described (Maniatis, T.; Fritsch, E. F.; Sambrook, J. Molecular Cloning, a Laboratory Manual; Cold Spring Harbor Laboratory: Cold Spring Harbor, N.Y. 1982; pp 149-185).^102 The end-labeling of the plasmid was accomplished by digestion with a restriction enzyme followed by end-filling with Klenow polymerase as previously described (Liu, L. F.; Rowe, T. C.; Yang, L.; Tewey, K. M.; Chen, G. L. “Cleavage of DNA by mammalian topoisomerase II,” J Biol. Chem. 1983, 258, 15365).^103 Cleavage assays were performed as previously reported (B. Gatto et al. Cancer Res., 1996, 56, 2795-2800).^13 The drug and the DNA in presence of topoisomerase I was incubated for 30 minutes at 37° C. After development of the gels, typically 24-hour exposure was used to obtain autoradiograms outlining the extent of DNA fragmentation. Topoisomerase I-mediated DNA cleavage values are reported as REC, Relative Effective Concentration, i.e. concentrations relative to 2,3-dimethoxy-8,9-methylenedioxybenzo[i]phenanthridine, whose value is arbitrarily assumed as 1.0, that are able to produce the same cleavage on the plasmid DNA in the presence of human topoisomerase I. Relative potency was based upon the relative amount of drug needed to induce approximately 10% DNA fragmentation. Assays were performed under the direction of Dr. L. F. Liu, Department of Pharmacology, The University of Medicine and Dentistry of New Jersey, Robert Wood Johnson Medical School, Piscataway, N.J. Data from Test A for representative compounds of the invention is shown in Table 1.

[1] = system: human lymphoblast RPMI 8402; test: MTT-microtiter plate tetrazolinium cytotoxicity assay, RPMI 8402; assay type: cell-based; conditions: continuous exposure 3-4 days
Procedure: (§1) Test B. Inhibition of Cell Growth: MTT-microtiter Plate Tetrazolinium Cytotoxicity Assay (RPMI 8402, CPT-K5, U937, U937/CR Cells)
(§2) The cytotoxicity was determined using the MTT-microtiter plate tetrazolinium cytotoxicity assay (MTA) (See Chen A. Y. et al. Cancer Res. 1993, 53, 1332; Mosmann, T. J., J. Immunol. Methods 1983, 65, 55; and Carmichael, J. et al. Cancer Res. 1987, 47, 936). The human lymphoblast RPMI 8402 and its camptothecin-resistant variant cell line, CPT-K5 were provided by Dr. Toshiwo Andoh (Anchi Cancer Research Institute, Nagoya, Japan) (see Andoh, T.; Okada, K. “Drug resistance mechanisms of topoisomerase I drugs,” Adv. in Pharmacology 1994, 29B, 93). Human U-937 myeloid leukemia cells and U-937/CR cells were described by Rubin et al., J. Biol. Chem., 269, 2433-2439 (1994). The cytotoxicity assay was performed by using 96-well microtiter plates using 2000 cells/well, in […] of growth medium. Cells were grown in suspension at 37° C. in 5% CO2 and maintained by regular passage in RPMI medium supplemented with 10% heat-inactivated fetal bovine serum, L-glutamine (2 mM), penicillin (100U/mL), and streptomycin (0.1 mg/mL). For determination of IC50, cells were exposed continuously for 3-4 days to varying concentrations of drug, and MTT assays were performed at the end of the fourth day. […] All assays were performed at least twice in 6 replicate wells. All assays were performed under the direction of Dr. L. F. Liu, Department of Pharmacology, The University of Medicine and Dentistry of New Jersey, Robert Wood Johnson Medical School, Piscataway, N.J. Representative data is shown in Tables 2 and 3.

[2] = system: CPT-K5 (camptothecin-resistant variant of RPMI 8402); test: MTT-microtiter plate tetrazolinium cytotoxicity assay, CPT-K5; assay type: cell-based; conditions: Homo sapiens, continuous exposure 3-4 days
Procedure: as §1, §2

[3] = system: Human U-937 myeloid leukemia cells; test: MTT-microtiter plate tetrazolinium cytotoxicity assay, U937; assay type: cell-based; conditions: continuous exposure 3-4 days
Procedure: as §1, §2

U-937/CR cells = test: MTT-microtiter plate tetrazolinium cytotoxicity assay, U937/CR; assay type: cell-based; conditions: Homo sapiens, continuous exposure 3-4 days
Procedure: as §1, §2

ZR-75-1 (breast) = test: MTT-microtiter plate tetrazolinium cytotoxicity assay, ZR-75-1; assay type: cell-based
HELA (cervical) = test: MTT-microtiter plate tetrazolinium cytotoxicity assay, HELA; assay type: cell-based; conditions: continuous exposure 3-4 days
KBV-1 (mdr-1) = test: MTT-microtiter plate tetrazolinium cytotoxicity assay, KBV-1; assay type: cell-based
HCT116 (colon) = test: MTT-microtiter plate tetrazolinium cytotoxicity assay, HCT116; assay type: cell-based
KB3-1 (oral) = test: MTT-microtiter plate tetrazolinium cytotoxicity assay, KB3-1; assay type: cell-based
KBH1.0 + V (H033342r.) = test: MTT-microtiter plate tetrazolinium cytotoxicity assay, KBH1.0 + V; assay type: cell-based; conditions: continuous exposure 3-4 days
[4] = Homo sapiens, ZR-75-1, continuous exposure 3-4 days
[5] = Homo sapiens, KB-V1, continuous exposure 3-4 days
[6] = Homo sapiens, HCT-116, continuous exposure 3-4 days
[7] = Homo sapiens, KB 3-1, continuous exposure 3-4 days

Topoisomerase I-mediated DNA cleavage (REC, Relative Effective Concentration) (human topoisomerase I)	melting point [°C]	Compound	IC50 [1] [nM]	IC50 [2] [nM]	IC50 [3] [nM]	IC50 (U-937/CR cells) [nM]	IC50 (ZR-75-1 (breast); continuous exposure 3-4 days) [nM]	IC50 (HELA (cervical)) [nM]	IC50 (KBV-1 (mdr-1); continuous exposure 3-4 days) [nM]	IC50 (HCT116 (colon); continuous exposure 3-4 days) [nM]	IC50 (KB3-1 (oral); continuous exposure 3-4 days) [nM]	IC50 (KBH1.0 + V (H033342r.)) [nM]	IC50 (ZR-75-1 (breast); [4]) [nM]	IC50 (HELA (cervical); Homo sapiens, HeLa) [nM]	IC50 (KBV-1 (mdr-1); [5]) [nM]	IC50 (HCT116 (colon); [6]) [nM]	IC50 (KB3-1 (oral); [7]) [nM]
2	244 to 246	COc1ccc2c(c1)nnc1c3cc(OC)c(OC)cc3ccc21 [Compound 60, 2,3,8-Trimethoxydibenzo[c,h]cinnoline]	2000	4000	1900	2500	–	–	–	–	–	–	–	–	–	–	–
>100	–	COc1cc2ccc3c4cc(OC)c(OC)cc4nnc3c2cc1OC [Compound 19, 2,3,8,9-Tetramethoxy-dibenzo[c,h]cinnoline]	10000	> 10000	10000	20000	–	–	–	–	–	–	–	–	–	–	–
–	259 to 261	COc1ccc2ccc3c4cc5c(cc4nnc3c2c1)OCO5 [Compound 44, 3-Methoxy-8,9-methylenedioxydibenzo[c,h]cinnoline]	500	1300	43000	900	–	–	–	–	–	–	–	–	–	–	–
10	215 to 217	COc1ccc2nnc3c4cc(OC)c(OC)cc4ccc3c2c1 [Compound 61, 2,3,9-Trimethoxydibenzo[c,h]cinnoline]	4000	31000	3000	6000	–	–	–	–	–	–	–	–	–	–	–
5	–	COc1cc2ccc3c4ccccc4nnc3c2cc1OC [Compound 6, 2,3-Dimethoxy-dibenzo[c,h]cinnoline]	3000	10000	3000	3000	–	–	–	–	–	5000	4000	6000	4000	3200	6000
–	244 to 246	COc1cc2ccc3c4cc(OCc5ccccc5)c(OC)cc4nnc3c2cc1OC [Compound 42, 9-Benzyloxy-2,3,8-trimethoxydibenzo[c,h]cinnoline]	38000	61000	> 100000	40000	–	–	–	–	–	–	–	–	–	–	–
0.01	–	COc1cc2ccc3c4cc5c(cc4nnc3c2cc1OC)OCO5 [Compound 14, 2,3-Dimethoxy-8,9-methylenedioxy-dibenzo[c,h]cinnoline]	60	6000	60	3000	–	–	–	–	–	60	40	50	80	35	70

The remaining lines, values behind:

Compound	Topoisomerase I-mediated DNA cleavage (REC, Relative Effective Concentration) (human topoisomerase I)	melting point [°C]	IC50 [1] [nM]	IC50 [2] [nM]	IC50 [3] [nM]	IC50 (U-937/CR cells) [nM]	IC50 (ZR-75-1 (breast); continuous exposure 3-4 days) [nM]	IC50 (HELA (cervical)) [nM]	IC50 (KBV-1 (mdr-1); continuous exposure 3-4 days) [nM]	IC50 (HCT116 (colon); continuous exposure 3-4 days) [nM]	IC50 (KB3-1 (oral); continuous exposure 3-4 days) [nM]	IC50 (KBH1.0 + V (H033342r.)) [nM]	IC50 (ZR-75-1 (breast); [4]) [nM]	IC50 (HELA (cervical); Homo sapiens, HeLa) [nM]	IC50 (KBV-1 (mdr-1); [5]) [nM]	IC50 (HCT116 (colon); [6]) [nM]	IC50 (KB3-1 (oral); [7]) [nM]
CC[C@@]1(O)C(=O)OCc2c1cc1n(c2=O)Cc2cc3ccccc3nc2-1 [CPT]	–	–	–	–	–	–	4	4	6	3	6	7	–	–	–	–	–
CC[C@]1(O)C[C@@H]2CN(CCc3c([nH]c4ccccc34)[C@@](C(=O)OC)(c3cc4c(cc3OC)N(C)[C@H]3[C@@](O)(C(=O)OC)[C@H](OC(C)=O)[C@]5(CC)C=CCN6CC[C@]43[C@@H]65)C2)C1 [VBS, Vinblastine]	–	–	–	–	–	–	–	–	–	–	–	2.2	3	2	400	3	3
COc1cc2nnc3c4cc(OC)c(OC)cc4ccc3c2cc1O [Compound 34, 9-Hydroxy-2,3,8-trimethoxydibenzo[c,h]cinnoline]	–	–	> 100000	> 100000	> 100000	> 100000	–	–	–	–	–	–	–	–	–	–	–
COc1ccc2c(ccc3c4cc5c(cc4nnc23)OCO5)c1 [Compound 43, 2-Methoxy-8,9-methylenedioxydibenzo[c,h]cinnoline]	–	258 to 260	> 100000	52000	38000	30000	–	–	–	–	–	–	–	–	–	–	–
CCOc1ccc(-c2nc3ccc(-c4nc5ccc(N6CCN(C)CC6)cc5[nH]4)cc3[nH]2)cc1 [HO33342]	–	–	–	–	–	–	60	600	3000	220	250	> 10000	–	–	–	–	–
